# In article PMC9911797, “Novel TLR7/8 agonists promote activation of HIV-1 latent reservoirs and human T and NK cells” (Frontiers in Microbiology, 2023):
# Legend:
# hTLR8 = biological target: T1, hTLR8 (Homo sapiens, UniProt Q9NR97); experiment: HEK-Blue hTLR8 SEAP reporter assay; type: cell-based; settings: HEK-Blue hTLR8 cells, SEAP in supernatant
# T1 construct: host or cells: HEK-Blue hTLR8 (HEK293-derived)
# T1 sequence (Q9NR97 27-1041): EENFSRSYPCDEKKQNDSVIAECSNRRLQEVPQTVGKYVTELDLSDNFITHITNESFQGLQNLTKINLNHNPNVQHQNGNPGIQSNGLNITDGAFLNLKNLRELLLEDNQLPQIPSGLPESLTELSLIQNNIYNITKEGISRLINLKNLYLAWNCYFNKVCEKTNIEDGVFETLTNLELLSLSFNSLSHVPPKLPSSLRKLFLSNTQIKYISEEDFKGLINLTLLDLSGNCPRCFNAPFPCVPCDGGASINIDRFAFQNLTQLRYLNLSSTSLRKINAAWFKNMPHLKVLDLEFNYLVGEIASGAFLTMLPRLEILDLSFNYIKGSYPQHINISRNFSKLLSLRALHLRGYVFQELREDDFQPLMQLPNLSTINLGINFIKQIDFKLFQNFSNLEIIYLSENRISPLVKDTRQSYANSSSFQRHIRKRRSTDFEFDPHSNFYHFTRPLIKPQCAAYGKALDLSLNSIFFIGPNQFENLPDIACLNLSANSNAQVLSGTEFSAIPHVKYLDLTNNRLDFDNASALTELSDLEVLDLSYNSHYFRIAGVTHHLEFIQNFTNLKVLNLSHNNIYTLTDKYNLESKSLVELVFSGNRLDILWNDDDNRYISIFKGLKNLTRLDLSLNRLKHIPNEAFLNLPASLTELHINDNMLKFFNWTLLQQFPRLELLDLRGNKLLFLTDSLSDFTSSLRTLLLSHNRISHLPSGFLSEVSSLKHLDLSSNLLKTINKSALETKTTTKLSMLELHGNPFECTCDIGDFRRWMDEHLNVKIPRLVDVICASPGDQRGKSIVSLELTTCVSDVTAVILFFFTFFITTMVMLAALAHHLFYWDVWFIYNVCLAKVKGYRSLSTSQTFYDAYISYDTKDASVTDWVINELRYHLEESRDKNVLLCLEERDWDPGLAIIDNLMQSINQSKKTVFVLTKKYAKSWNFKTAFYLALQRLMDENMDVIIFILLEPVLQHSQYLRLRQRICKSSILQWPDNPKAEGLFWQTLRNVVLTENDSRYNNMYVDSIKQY
# Method: (§1) Starting with the lead compound, 76 pyrido [3,2-d] pyrimidine derivatives were synthesized and optimized through structural modification from the deep hydrophobic region to the solvent-exposed region. Seventy-six compounds were evaluated for their in vitro activity using HEK-Blue hTLR7 or hTLR8 reporter cells, stably expressing the human TLR7 or TLR8 and an NF-κB/AP1-inducible SEAP (secreted embryonic alkaline phosphatase reporter gene).
# (§2) Add 20 μl various concentrations of TLR agonists (10 dilutions) and in a 96-well plate. Then HEK-Blue hTLR7 and hTLR8 cells were suspended to 4 × 10^5 cells/ml in HEK-Blue Detection (InvivoGen) medium and added 180 μl per well. The plates were incubated at 37°C in 5% CO2 for 12 ~ 16 h. Stimulation with a hTLR7or hTLR8 ligand activates NF-κB to induce the production of secreted embryonic alkaline phosphatase (SEAP) in the culture supernatant. SEAP could be measured at OD630nm on an ELISA plate reader.
# hTLR7 = biological target: T2, hTLR7 (Homo sapiens, UniProt Q9NYK1); experiment: HEK-Blue hTLR7 SEAP reporter assay; type: cell-based; settings: HEK-Blue hTLR7 cells, SEAP in supernatant
# T2 construct: host or cells: HEK-Blue hTLR7 (HEK293-derived)
# T2 sequence (Q9NYK1 27-1049): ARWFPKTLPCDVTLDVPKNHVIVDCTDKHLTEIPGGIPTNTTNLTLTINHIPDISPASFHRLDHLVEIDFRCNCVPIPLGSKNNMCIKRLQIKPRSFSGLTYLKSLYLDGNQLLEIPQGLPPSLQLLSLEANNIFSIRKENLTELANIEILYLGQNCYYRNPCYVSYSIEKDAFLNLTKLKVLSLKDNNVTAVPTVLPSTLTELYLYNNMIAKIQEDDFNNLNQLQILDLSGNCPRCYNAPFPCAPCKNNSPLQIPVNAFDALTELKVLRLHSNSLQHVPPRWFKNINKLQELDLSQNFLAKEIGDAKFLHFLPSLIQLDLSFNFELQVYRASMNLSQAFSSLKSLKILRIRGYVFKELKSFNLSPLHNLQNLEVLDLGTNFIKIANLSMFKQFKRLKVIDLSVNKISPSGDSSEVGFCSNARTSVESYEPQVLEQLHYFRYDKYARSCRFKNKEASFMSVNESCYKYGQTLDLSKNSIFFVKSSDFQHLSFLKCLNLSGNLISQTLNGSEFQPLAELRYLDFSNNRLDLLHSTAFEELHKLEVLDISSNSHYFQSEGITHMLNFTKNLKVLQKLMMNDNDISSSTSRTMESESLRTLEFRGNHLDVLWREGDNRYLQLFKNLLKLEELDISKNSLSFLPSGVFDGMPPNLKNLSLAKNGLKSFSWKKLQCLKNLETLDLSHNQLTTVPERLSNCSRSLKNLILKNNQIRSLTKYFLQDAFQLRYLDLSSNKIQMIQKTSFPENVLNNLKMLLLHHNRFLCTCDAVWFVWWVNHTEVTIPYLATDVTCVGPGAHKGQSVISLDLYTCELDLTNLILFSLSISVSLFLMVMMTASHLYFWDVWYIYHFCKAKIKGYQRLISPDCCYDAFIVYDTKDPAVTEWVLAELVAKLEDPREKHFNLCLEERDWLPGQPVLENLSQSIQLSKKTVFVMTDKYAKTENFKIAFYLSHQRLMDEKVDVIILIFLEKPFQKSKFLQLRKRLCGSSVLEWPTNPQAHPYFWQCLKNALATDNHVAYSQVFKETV
# Method: as §1, §2
# [1] = test system: J-LAT CD4 T cell line (latent HIV-1); experiment: Direct stimulation of J-LAT cells (GFP-positive cells)
# [2] = test system: PBMCs from HIV-1 well-suppressed patients; experiment: Latent HIV-1 activation in PBMCs of well-suppressed patients (HIV-1 RNA copies in supernatant, RT-qPCR); type: cell-based, human; settings: for HIV-1 RNA copies in the supernatant: patient PBMCs (n = 6), 96 h at 37°C; for HIV-1 RNA copies in the supernatant and TNF-α concentration: PBMCs from seven well-suppressed patients, IgG1-control antibody vs anti-TNF-α
# From the text: To study the potential of novel TLR7/8 in activating latent HIV-1 reservoir, TLR7/8 dual agonists D018 and C142 and TLR8-specific agonist B-130a were mixed with PBMCs from six well-suppressed patients whose viral load in the plasma was less than 50 copies/ml, and CD4 counts were more than […] for more than 6 years.
# TLR7/8 agonists activated PBMCs from seven well-suppressed patients with the addition of anti-TNF-α monoclonal antibody or IgG1-control monoclonal antibody, respectively. D018, B-130a, and the positive control PMA + ION increased the levels of HIV-1 RNA copies in the supernatant and the concentration of TNF-α concomitantly.
# To measure the HIV viral load, viral RNA from supernatants was extracted by MagaBio Plus Viral DNA / RNA Purification Kit (BIOER). The reverse-transcription and analysis of RNA copies were performed using the HIV-1 Real-time PCR detection kit (BIOER).
# PBMCs = experiment: Inflammatory cytokine release from PBMCs (Legend-plex); type: cell-based, human; settings: PBMC culture supernatant 48 h after stimulation
# Method: Then, a total of 13 human inflammatory cytokines and chemokines (IL-1β, IFN-α2, IFN-γ, TNF-α, CCL2, IL-6, CXCL8, IL-10, IL-12p70, IL-17A, IL-18, IL-23, and IL-33) were measured in the culture supernatant 48 h after stimulation and compared with two healthy donors. Only 8 out of 13 became detectable and largely fell into the proinflammatory cytokines (IL-1β, IL-6, IL-18, IL-23, and TNF-α), Th1-and Th2-type cytokines (IL-10 and IFN-γ), and type I (IFN-α2) and type II (IFN-γ) interferons (Figures 2B–I).
# The supernatants from PBMCs culture were collected and stored at-20°C until analysis. For the Multi-cytokines assay, the Legend-plex Human Inflammation Panel 1 kit (Biolegend) was used according to the manual. Thirteen human inflammatory cytokines/chemokines were measured, including IL-1β, IFN-α2, IFN-γ, TNF-α, MCP-1 (CCL2), IL-6, IL-8 (CXCL8), IL-10, IL-12p70, IL-17A, IL-18, IL-23, and IL-33.
# [3] = test system: J-LAT cells co-cultured with MDDCs; experiment: J-LAT and MDDC co-culture assay (GFP+ cells and TNF-α); settings: 1 μM, 48 h
# NF-κB p65 in U1 cells = experiment: Nuclear phospho-p65-S536 in U1 cells (western blot); settings: 1 μM, 30 min, 37°C
# [4] = test system: U1 monocytic cell line (latent HIV-1); experiment: HIV-1 p24 production in latently infected U1 cells (ELISA); settings: 1 μM, TLR8- or MyD88-shRNA U1 vs sham-knockdown
# HIV-1 = test system: HIV-1; parameters: method as in SenGupta et al., 2021; settings: patients treated with oral GS9620, phase 1b, placebo 4.1 weeks; ref SenGupta et al., 2021; cited from earlier work
# [5] = test system: J-LAT CD4 T cell line (latent HIV-1); experiment: J-LAT activation by supernatant of agonist-stimulated healthy donor PBMCs (GFP+ cells, FACS); settings: 48 h, highest concentration 16 μM
Compound,EC50 (hTLR8),EC50 (hTLR7),other results
COCCNc1nc(N)nc2ccc(Cc3ccc(CN(C)C)cc3)nc12 [199-1],9.69 nM,117 nM,–
TNF-α,–,–,"GFP-positive J-LAT cells, direct stimulation [1]: could activate GFP expression"
CCCCNc1nc(N)nc2ccc(C(C)c3ccc(CN(C)C)cc3)nc12 (stereo not shown) [C163],178 nM,1650 nM,–
CCCCNc1nc(N)nc2ccc(Cc3ccc(CN(C)C)cc3OC)nc12 [C142],44.1 nM,20 nM,"HIV-1 RNA copies in the supernatant [2]: activated detectable levels of HIV-1 RNA copies; release of inflammatory cytokines (PBMCs): either equivalent (IL-6, IL-10, IL-23, and IFN-γ) or higher (IL-1β, IL-18, and TNF-α) than the commercially available R848"
CCCCCc1cc(Cc2ccc(CN(C)C)cc2)c(C)nc1N [B-130a],55.2 nM,> 10000 nM,GFP+ J-LAT cells and soluble TNF-α in MDDC co-culture [3]: marked increase; HIV-1 RNA copies in the supernatant and TNF-α concentration [2]: increased; HIV-1 RNA copies in the supernatant [2]: activated detectable levels of HIV-1 RNA copies; nuclear phos-p65-S536 (NF-κB p65 in U1 cells): significant increase; release of inflammatory cytokines (PBMCs): comparable potency but were invariably higher than TLR7-specific GS9620; p24 production after TLR8 or MyD88 knockdown [4]: essentially abolished the p24 production
IFN-α,–,–,"GFP-positive J-LAT cells, direct stimulation [1]: failed to activate J-LAT cells"
CCCCCc1cc(Cc2ccc(CN3CCCC3)cc2)c(C)nc1N [B-130b],67.2 nM,> 10000 nM,–
"CCCCOc1nc(N)c2c(n1)N(Cc1cccc(CN3CCCC3)c1)CC(=O)N2 [GS9620, reference compound]",> 10000 nM,353 nM,"viral rebound time (HIV-1): 5.1 weeks; GFP+ J-LAT cells and soluble TNF-α in MDDC co-culture [3]: no detectable levels; HIV-1 RNA copies in the supernatant and TNF-α concentration [2]: low detectable levels; GFP-positive J-LAT cells, PBMC supernatant [5]: did not show any detectable effect"
CCCCNc1nc(N)nc2ccc(Cc3ccc(CN4CCCC4)cc3)nc12 [C008],17.3 nM,101 nM,–

# Further lines, with some results ahead:
EC50 (hTLR8),EC50 (hTLR7),Compound,other results
2000 nM,2600 nM,CCCCNc1nc(N)nc2ccc(Cl)nc12 [LB06],–
51 nM,118 nM,CCCCNc1nc(N)nc2ccc(Cc3ccc(CN4CCOCC4)cc3)nc12 [WA86],–
151 nM,> 10000 nM,"CCCN(CCC)C(=O)C1=Cc2ccc(-c3ccc(C(=O)N4CCCC4)cc3)cc2N=C(N)C1 [VTX-2337, reference compound]",release of inflammatory cytokines (PBMCs): comparable potency but were invariably higher than TLR7-specific GS9620
197 nM,> 10000 nM,CCCCCc1cc2nc(Cc3ccc(CN(C)C)cc3)ccc2nc1N [WA175],–
